Measured values from publication PMC4332989 (Cellular signalling, 2014).
Read-outs that look alike come from different tables or passages of the source.

Columns and labels:
[1] = target: T1, CB1R (Mus musculus, UniProt P47746); experiment: cell-based; conditions: for EC50: EC50, inhibition of forskolin-stimulated cAMP accumulation, 1 μM forskolin
[2] = target: CB1R coupling to Gαi1 (Mus musculus, UniProt P47746); conditions: 100 nM
[3] = target: CB1R coupling to Gαi3 (Mus musculus, UniProt P47746); conditions: 100 nM
Sequence of CB1R coupling to Gαi3 (P47746 whole entry): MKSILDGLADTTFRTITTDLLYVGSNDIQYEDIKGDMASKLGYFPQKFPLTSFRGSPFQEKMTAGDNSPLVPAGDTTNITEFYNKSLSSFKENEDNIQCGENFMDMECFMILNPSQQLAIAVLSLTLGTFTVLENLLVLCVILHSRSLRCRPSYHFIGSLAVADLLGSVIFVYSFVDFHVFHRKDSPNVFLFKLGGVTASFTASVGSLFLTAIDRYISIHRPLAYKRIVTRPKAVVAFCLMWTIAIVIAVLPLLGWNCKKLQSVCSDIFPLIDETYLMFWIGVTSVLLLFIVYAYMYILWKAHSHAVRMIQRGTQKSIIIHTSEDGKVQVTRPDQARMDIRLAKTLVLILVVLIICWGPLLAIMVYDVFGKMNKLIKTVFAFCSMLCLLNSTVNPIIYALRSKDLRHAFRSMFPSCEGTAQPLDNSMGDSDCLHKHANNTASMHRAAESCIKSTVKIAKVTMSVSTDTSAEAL

[4] = target: T1, CB1R; type: cell-based; conditions: for agonist-stimulated maximal ERK1/2 phosphorylation: 5 min (Fig. 4B); for stimulated ERK1/2 phosphorylation: 5 min (Fig. 5B); for agonist-stimulated enhancement in phosphoERK1/2 levels: over basal (Fig. 4)
[5] = target: CB1R coupling to Gαo (Mus musculus, UniProt P47746); conditions: 100 nM
Sequence of CB1R coupling to Gαo (P47746 whole entry): as above

[6] = target: CB1R coupling to Gαi2 (Mus musculus, UniProt P47746); conditions: 100 nM
Sequence of CB1R coupling to Gαi2 (P47746 whole entry): as above

[7] = system: CB1R; experiment: On-cell-Western CB1R cell surface density in N18TG2 clones; type: cell-based, mouse
[8] = WT, Control or CRIP1a KD membranes

T1 sequence (P47746 whole entry): as above
Sequence of CB1R coupling to Gαi1 (P47746 whole entry): as above

SMILES: CCCCCCC(C)(C)c1ccc([C@@H]2C[C@H](O)CC[C@H]2CCCO)c(O)c1 [CP55940, (−)-cis-3-[2-Hydroxy-4-(1,1-dimethyl-heptyl)phenyl]-trans-4-(3-hydroxypropyl)cyclohexanol]
- EC50 ([1]; CRIP1a KD cells, 4 min): 0.2 nM
- EC50 ([1]; CRIP1a over-expression (XS) cells, 4 min): 1.6 nM
- EC50 ([1]; N18TG2 WT cells, 4 min): 3.4 nM
- stimulation of [35S]GTPγS binding to Gαi1 ([2]; CRIP1a XS membranes): 128±54 % above basal
- binding of Gαi1 to CB1R following treatment [2, 8]: no differences
- stimulated [35S]GTPγS binding to Gαi3 ([3]; CRIP1a KD membranes): 103±22 % over basal
- stimulated [35S]GTPγS binding to Gαi3 ([3]; CRIP1a XS membranes): 10±12 % over basal
- stimulated [35S]GTPγS binding to Gαi3 ([3]; Control clone membranes): 62±21 % over basal
- stimulated [35S]GTPγS binding to Gαi3 ([3]; WT membranes): 79±18 % over basal
- agonist-stimulated maximal ERK1/2 phosphorylation ([4]; CRIP1a KD2C cells, 10 nM): 63±8%
- agonist-stimulated maximal ERK1/2 phosphorylation ([4]; CRIP1a KD2F cells, 10 nM): 59±4%
- stimulated ERK1/2 phosphorylation ([4]; KD2C cells, 10 nM): 68±4%
- stimulated ERK1/2 phosphorylation ([4]; KD2C cells, 100 nM): 58±5%
- stimulated ERK1/2 phosphorylation ([4]; KD2F cells, 10 nM): 73±5%
- stimulated ERK1/2 phosphorylation ([4]; KD2F cells, 100 nM): 62±6%
- agonist-stimulated enhancement in phosphoERK1/2 levels ([4]; N18TG2 WT cells, 10 nM, 5 min): 45±6%
- time of rapid increase in phosphoERK1/2 levels ([4]; WT, CRIP1a-XS and KD cells, 10 nM): ≤ 5 min
- enhancement in [35S]GTPγS binding to Gαo ([5]; CRIP1a KD membranes): 79±21 % over basal
- enhancement in [35S]GTPγS binding to Gαo ([5]; CRIP1a XS membranes): 4±3 % over basal
- enhancement in [35S]GTPγS binding to Gαo ([5]; WT membranes): 49±9 % over basal
- stimulation of [35S]GTPγS binding to Gαi2 ([6]; CRIP1a XS membranes): 753±316 % above basal
- binding of Gαi2 to CB1R following treatment [6, 8]: no differences

SMILES: C[C@@H]1C[C@@H]([C@H](O)CC2CC(=O)NC(=O)C2)C(=O)[C@@H](C)C1 [cycloheximide]
- effect on CB1R plasma membrane density ([7]; CRIP1a XS or KD cells, 50 μM, 2 h pre-treatment (data not shown)): failed to alter

SMILES: CCCCC/C=C\C/C=C\C/C=C\C/C=C\CCCC(=O)N[C@H](C)CO [mAEA, (R)-N-(2-Hydroxy-1-methylethyl)-5Z,8Z,11Z,14Z-eicosatetraenamide]
- effect on cAMP accumulation ([1]; all clones, not altered by differences in the expression of CRIP1a (Fig. 7B)): concentration-dependent attenuation
- ERK phosphorylation as share of the response observed with a CB1R full agonist ([4]; N18TG2 WT cells, 10 nM, 5 min): ~ 30%
- agonist-stimulated enhancement in phosphoERK1/2 levels ([4]; N18TG2 WT cells, 10 nM, 5 min): 12±2%

SMILES: O=C(NN=Cc1ccc(O)c(O)c1)c1cc2ccccc2cc1O [Dynasore, 3-Hydroxynaphthalene-2-carboxylic acid (3,4-dihydroxybenzylidene)hydrazide]
- effect on CP55940-stimulated phosphorylation of ERK1/2 ([4]; WT, CRIP1a-XS and KD clones, Dynasore 80 μM, 30 min preincubation, CP55940 10 nM): completely blocked

SMILES: C=C[C@@]1(C)CC(=O)[C@]2(O)[C@@]3(C)[C@@H](O)CCC(C)(C)[C@@H]3[C@H](O)[C@H](OC(C)=O)[C@@]2(C)O1 [forskolin]
- stimulation of cAMP accumulation over vehicle ([1]; 1 μM, 4 min, WT, Control, CRIP1a XS, CRIP1a KD): to the same extent in all cell lines tested

SMILES: CCCCCCCCCCC[C@@H](C[C@@H]1OC(=O)[C@H]1CCCCCC)OC(=O)[C@H](CC(C)C)NC=O [THL, tetrahydrolipstatin]
- effect on total or cell surface levels of CB1R ([7]; THL pretreatment 1 μM, 2 h (data not shown)): did not change

SMILES: Cc1c(C(=O)c2cccc3ccccc23)c2cccc3c2n1C(CN1CCOCC1)CO3 (stereo not drawn) [WIN55212-2, [2,3-dihydro-5-methyl-3-[(4-morpholinyl)methyl]pyrrolo[1,2,3-de]-1,4-benzoxazin-6-yl](1-naphthyl)methanone]
- agonist-stimulated enhancement in phosphoERK1/2 levels ([4]; N18TG2 WT cells, 10 nM, 5 min): 36±5%
